We go through 1 compound from patent US20100324102A1, “N-(3-PYRIDIN-2-YLPROPYL) BENZAMIDE DERIVATIVES AS FUNGICIDES” (BAYER CROPSCIENCE AG, priority 2006, published 2010).

In one assay the test system is Pyrenophora teres. The experiment in a line: In vivo test on Pyrenophora teres (barley net blotch). The conditions noted are these: barley plants (Express variety), preventive spray at 330 ppm, contamination after 24 hours, grading 12 days after contamination vs control plants. On the procedure:
(§1) The active ingredients tested are prepared by potter homogenisation in a mixture of acetone/tween/water. This suspension is then diluted with water to obtain the desired active material concentration.
Barley plants (Express variety), sown on a 50/50 peat soil-pozzolana substrate in starter cups and grown at 12° C., are treated at the 1-leaf stage (10 cm tall) by spraying with the active ingredient prepared as described above. Plants, used as controls, are treated with the mixture of acetone/tween/water not containing the active material.
After 24 hours, the plants are contaminated by spraying them with an aqueous suspension of Pyrenophora teres spores (12,000 spores per ml). The spores are collected from a 12-day-old culture. The contaminated barley plants are incubated for 24 hours at about 20° C. and at 100% relative humidity, and then for 12 days at 80% relative humidity.
Grading is carried out 12 days after the contamination, in comparison with the control plants.

In the next assay the test system is Alternaria brassicae. The experiment in a line: In vivo test on Alternaria brassicae (leaf spot of crucifers). The conditions noted are these: radish plants (Pernot variety), preventive spray at 330 ppm, contamination after 24 hours, grading 6 to 7 days after contamination vs control plants. On the procedure: as §1
Radish plants (Pernot variety), sown on a 50/50 peat soil-pozzolana substrate in starter cups and grown at 18-20° C., are treated at the cotyledon stage by spraying with the active ingredient prepared as described above.
Plants, used as controls, are treated with the mixture of acetone/tween/water not containing the active material.
After 24 hours, the plants are contaminated by spraying them with an aqueous suspension of Alternaria brassicae spores (40,000 spores per cm^3). The spores are collected from a 12 to 13 days-old culture.
The contaminated radish plants are incubated for 6-7 days at about 18° C., under a humid atmosphere.
Grading is carried out 6 to 7 days after the contamination, in comparison with the control plants.

The structures appear in SMILES notation.

As to `O=C(NCCCc1ncc(C(F)(F)F)cc1Cl)c1ccccc1C(F)(F)F` [Compound 1, N-{3-[3-chloro-5-(trifluoromethyl)pyridin-2-yl]propyl}-2-(trifluoromethyl)benzamide], the protection entry with Pyrenophora teres and with Alternaria brassicae was “at least 70%” each time.
